Source: patent US20100004738A1, “DRUG DELIVERY COATING FOR USE WITH A MEDICAL DEVICE AND METHODS OF TREATING VASCULAR INJURY” (ATRIUM MEDICAL CORPORATION, priority 2005, published 2010)

Columns and labels:
Type in all cases: in vivo
rabbit illiac arteries [1] = assay: Example 2: drug-loaded Atrium Flyer stents vs Taxus Express in rabbit iliac arteries for 28 days, histomorphic and histopathologic analyses; conditions: for EEL Area / IEL Area / Intimal Area / Lumen Area / Stenosis: mean ± SD
Protocol: Histomorphic and histopathologic analyses are then performed.

rabbit's iliac vessel = assay: Rapamycin drug eluting stents in rabbit iliac vessel, inflammation (inventors' earlier studies)
From the text: The inventors postulate, based on these animal study results, that one consequence of these types of drugs is retarded endothelial cell coverage, and that current drug eluting stents promote more chronic inflammation than would normally be present with a non drug eluting bare metal stent.

rabbit illiac arteries [2] = assay: Example 1: stents implanted in rabbit iliac arteries for 28 days, histomorphic and histopathologic analyses; design: Injury Score / Fibrin Score / Inflamm. Score: scale not given here; conditions: for % Endothel. / % struts with Fibrin / % struts with RBC / EEL Area / Fibrin Score / IEL Area / Inflamm. Score / Injury Score / Intimal Area / Intimal Thick. / Lumen Area / Medial Area / Medial Thick. / Stenosis / Struts with Giant cells: Atrium Flyer ALPHA-3 coated stent, mean ± SD
Protocol: The Atrium Flyer is compared with bare metal stents, the Atrium Flyer coated with ALPHA-3 without drugs, and Cypher™ drug eluting stent. Histomorphic and histopathologic analyses are then performed.

rabbit iliacs = assay: Calcineurin inhibiting compounds after vascular injury in rabbit iliacs (inventors' earlier studies); conditions: local delivery, also rat, by reducing giant cell and eosinophil formation
From the text: Studies in rabbit iliacs following vascular injury conducted by and/or on behalf of the inventors show the benefits of using calcineurin inhibiting compounds like Tacrolimus, Cyclosporin A (CsA) and Cyclosporin derivatives, in small animals like the rat, and in rabbits. […] Such vascular injury and sirolimus medicated inflammation can be characterized as having excessive giant cell formation and esinophil propagation.

[3] = Atrium Flyer ALPHA-3 coated stent loaded with high dose of the drug, 28 days
[4] = Atrium Flyer ALPHA-3 coated stent loaded with low dose of the drug, 28 days
[5] = Atrium Flyer ALPHA-3 coated stent loaded with mid-dose of the drug, 28 days
[6] = sirolimus = Atrium drug coated stents, Cypher = commercial stent

`O=C1CCc2cc(OCCCCc3nnnn3C3CCCCC3)ccc2N1` [Cilostazol, cilostazol] was tested. Which “EEL Area” value (rabbit illiac arteries [1]; [3]) did it give?
Its value is 5.73 ± 0.31 mm^2.

And the “IEL Area” value (rabbit illiac arteries [1]; [3])?
Its value is 5.47 ± 0.26 mm^2.

What about the “Intimal Area” value (rabbit illiac arteries [1]; [3]) of the same molecule?
The value was 1.245 ± 0.303 mm^2.

And the “Lumen Area” value (rabbit illiac arteries [1]; [3])?
Its value is 4.25 ± 0.42 mm^2.

And the Stenosis (rabbit illiac arteries [1]; [3])?
Its Stenosis is 22.7 ± 5.9%.

What about the “EEL Area” value (rabbit illiac arteries [1]; [4]) of the same molecule?
Its value is 5.80 ± 0.22 mm^2.

What about the “IEL Area” value (rabbit illiac arteries [1]; [4]) of the same molecule?
The value was 5.51 ± 0.21 mm^2.

And the “Intimal Area” value (rabbit illiac arteries [1]; [4])?
The value was 1.246 ± 0.115 mm^2.

What about the “Lumen Area” value (rabbit illiac arteries [1]; [4]) of the same molecule?
Its value is 4.26 ± 0.28 mm^2.

And the Stenosis (rabbit illiac arteries [1]; [4])?
The Stenosis was 22.7 ± 2.4%.

And the “EEL Area” value (rabbit illiac arteries [1]; [5])?
Its value is 5.70 ± 0.16 mm^2.

What about the “IEL Area” value (rabbit illiac arteries [1]; [5]) of the same molecule?
Its value is 5.43 ± 0.14 mm^2.

What about the “Intimal Area” value (rabbit illiac arteries [1]; [5]) of the same molecule?
Its value is 1.257 ± 0.321 mm^2.

And the “Lumen Area” value (rabbit illiac arteries [1]; [5])?
Its value is 4.25 ± 0.39 mm^2.

What about the Stenosis (rabbit illiac arteries [1]; [5]) of the same molecule?
Its Stenosis is 23.0 ± 5.7%.

What about the “reduction in neointima (in words)” value (rabbit illiac arteries [1]; Atrium Flyer coated stents, 28 days) of the same molecule?
The value was “No reduction in neointima”.

Which “EEL Area” value (rabbit illiac arteries [1]; [3]) does the source give for `CC(=O)O[C@H]1C(=O)[C@@]2(C)[C@H]([C@H](OC(=O)c3ccccc3)[C@]3(O)C[C@H](OC(=O)[C@H](O)[C@@H](NC(=O)c4ccccc4)c4ccccc4)C(C)=C1C3(C)C)[C@]1(OC(C)=O)CO[C@@H]1C[C@@H]2O` [Paclitaxel, paclitaxel] here?
Its value is 5.63 ± 0.24 mm^2.

What about the “IEL Area” value (rabbit illiac arteries [1]; [3]) of the same molecule?
Its value is 5.40 ± 0.24 mm^2.

What about the “Intimal Area” value (rabbit illiac arteries [1]; [3]) of the same molecule?
Its value is 1.048 ± 0.084 mm^2.

What about the “Lumen Area” value (rabbit illiac arteries [1]; [3]) of the same molecule?
Its value is 4.35 ± 0.22 mm^2.

And the Stenosis (rabbit illiac arteries [1]; [3])?
The Stenosis was 19.4 ± 1.5%.

And the “EEL Area” value (rabbit illiac arteries [1]; [4])?
The value was 5.88 ± 0.41 mm^2.

And the “IEL Area” value (rabbit illiac arteries [1]; [4])?
The value was 5.58 ± 0.36 mm^2.

And the “Intimal Area” value (rabbit illiac arteries [1]; [4])?
Its value is 1.234 ± 0.197 mm^2.

What about the “Lumen Area” value (rabbit illiac arteries [1]; [4]) of the same molecule?
Its value is 4.35 ± 0.40 mm^2.

What about the Stenosis (rabbit illiac arteries [1]; [4]) of the same molecule?
The Stenosis was 22.2 ± 4.0%.

And the “EEL Area” value (rabbit illiac arteries [1]; [5])?
Its value is 5.56 ± 0.26 mm^2.

And the “IEL Area” value (rabbit illiac arteries [1]; [5])?
The value was 5.31 ± 0.25 mm^2.

What about the “Intimal Area” value (rabbit illiac arteries [1]; [5]) of the same molecule?
Its value is 1.152 ± 0.243 mm^2.

And the “Lumen Area” value (rabbit illiac arteries [1]; [5])?
The value was 4.16 ± 0.27 mm^2.

What about the Stenosis (rabbit illiac arteries [1]; [5]) of the same molecule?
Its Stenosis is 21.8 ± 5.0%.

What about the “in-stent neointimal growth (in words)” value (rabbit illiac arteries [1]; Atrium high dose stents, 28 days, compared with Taxus Express) of the same molecule?
Its value is “suppresses in-stent neointimal growth”.

What about the “arterial healing (in words)” value (rabbit illiac arteries [1]; rabbit, in vivo) of the same molecule?
Its value is “(greater) arterial healing”.

With `CO[C@H]1C[C@@H]2CC[C@@H](C)[C@@](O)(O2)C(=O)C(=O)N2CCCC[C@H]2C(=O)O[C@H]([C@H](C)C[C@@H]2CC[C@@H](O)[C@H](OC)C2)CC(=O)[C@H](C)/C=C(\C)[C@@H](O)[C@@H](OC)C(=O)[C@H](C)C[C@H](C)/C=C/C=C/C=C/1C` [Sirolimus, Sirolimus (rapamycin)] as the molecule, how does the “inflammatory response around the drug eluting stent (in words)” value (rabbit's iliac vessel; Rapamycin drug eluting stent, rabbit iliacs) read?
Its value is “presence of numerous giant cells and esinophils”.

What about the “amount of inflammation induced by overlapping drug coating” value (rabbit's iliac vessel; two separate rapamycin drug eluting stents overlapping in rabbit iliac vessel) of the same molecule?
Its value is “increases nearly two fold”.

What about the “tolerability / adverse reaction” value (rabbit illiac arteries [2]; Atrium Flyer ALPHA-3 coated stent loaded with low or high doses of sirolimus) of the same molecule?
Its value is “well tolerated, producing no adverse reaction”.

And the “% Endothel.” value (rabbit illiac arteries [2]; high dose sirolimus, n = 10)?
Its value is 97.90 ± 4.58%.

And the “% struts with Fibrin” value (rabbit illiac arteries [2]; high dose sirolimus, n = 10)?
The value was 11.99 ± 6.81%.

And the “% struts with RBC” value (rabbit illiac arteries [2]; high dose sirolimus, n = 10)?
The value was 2.86 ± 3.23%.

And the “EEL Area” value (rabbit illiac arteries [2]; high dose sirolimus, n = 10)?
Its value is 6.24 ± 0.25 mm^2.

And the “Fibrin Score” value (rabbit illiac arteries [2]; high dose sirolimus, n = 10)?
Its value is 0.11 ± 0.09.

And the “IEL Area” value (rabbit illiac arteries [2]; high dose sirolimus, n = 10)?
The value was 5.90 ± 0.25 mm^2.

And the “Inflamm. Score” value (rabbit illiac arteries [2]; high dose sirolimus, n = 10)?
The value was 0.03 ± 0.10.

What about the “Injury Score” value (rabbit illiac arteries [2]; high dose sirolimus, n = 10) of the same molecule?
Its value is 0.04 ± 0.06.

What about the “Intimal Area” value (rabbit illiac arteries [2]; high dose sirolimus, n = 10) of the same molecule?
The value was 0.99 ± 0.10 mm^2.

What about the “Intimal Thick.” value (rabbit illiac arteries [2]; high dose sirolimus, n = 10) of the same molecule?
Its value is 0.08 ± 0.03 mm.

And the “Lumen Area” value (rabbit illiac arteries [2]; high dose sirolimus, n = 10)?
Its value is 4.94 ± 0.27 mm^2.

What about the “Medial Area” value (rabbit illiac arteries [2]; high dose sirolimus, n = 10) of the same molecule?
The value was 0.34 ± 0.05 mm^2.

What about the “Medial Thick.” value (rabbit illiac arteries [2]; high dose sirolimus, n = 10) of the same molecule?
The value was 0.06 ± 0.02 mm.

What about the Stenosis (rabbit illiac arteries [2]; high dose sirolimus, n = 10) of the same molecule?
Its Stenosis is 16.73 ± 1.61%.

What about the “Struts with Giant cells” value (rabbit illiac arteries [2]; high dose sirolimus, n = 10, in % (unit assumed)) of the same molecule?
Its value is 2.80 ± 0.63.

And the “% Endothel.” value (rabbit illiac arteries [2]; low dose sirolimus, n = 8)?
The value was 97.62 ± 2.67%.

And the “% struts with Fibrin” value (rabbit illiac arteries [2]; low dose sirolimus, n = 8)?
Its value is 34.12 ± 20.62%.

And the “% struts with RBC” value (rabbit illiac arteries [2]; low dose sirolimus, n = 8)?
Its value is 3.46 ± 3.07%.

What about the “EEL Area” value (rabbit illiac arteries [2]; low dose sirolimus, n = 8) of the same molecule?
Its value is 5.99 ± 0.44 mm^2.

And the “Fibrin Score” value (rabbit illiac arteries [2]; low dose sirolimus, n = 8)?
Its value is 0.20 ± 0.35.

And the “IEL Area” value (rabbit illiac arteries [2]; low dose sirolimus, n = 8)?
The value was 5.63 ± 0.38 mm^2.

And the “Inflamm. Score” value (rabbit illiac arteries [2]; low dose sirolimus, n = 8)?
The value was 0.53 ± 0.41.

And the “Injury Score” value (rabbit illiac arteries [2]; low dose sirolimus, n = 8)?
The value was 0.06 ± 0.07.

And the “Intimal Area” value (rabbit illiac arteries [2]; low dose sirolimus, n = 8)?
Its value is 0.97 ± 0.11 mm^2.

What about the “Intimal Thick.” value (rabbit illiac arteries [2]; low dose sirolimus, n = 8) of the same molecule?
The value was 0.07 ± 0.01 mm.

What about the “Lumen Area” value (rabbit illiac arteries [2]; low dose sirolimus, n = 8) of the same molecule?
Its value is 4.74 ± 0.32 mm^2.

And the “Medial Area” value (rabbit illiac arteries [2]; low dose sirolimus, n = 8)?
The value was 0.36 ± 0.09 mm^2.

And the “Medial Thick.” value (rabbit illiac arteries [2]; low dose sirolimus, n = 8)?
Its value is 0.05 ± 0.01 mm.

What about the Stenosis (rabbit illiac arteries [2]; low dose sirolimus, n = 8) of the same molecule?
Its Stenosis is 17.15 ± 1.84%.

What about the “Struts with Giant cells” value (rabbit illiac arteries [2]; low dose sirolimus, n = 8, in % (unit assumed)) of the same molecule?
The value was 2.50 ± 1.41.

And the “endothelialization (in words)” value (rabbit illiac arteries [2]; [6])?
Its value is “well endothelialized”.

And the “healing (in words)” value (rabbit illiac arteries [2]; [6])?
Its value is “delayed healing”.

And the “EEL Area” value (rabbit illiac arteries [1]; [3])?
Its value is 6.13 ± 0.15 mm^2.

And the “IEL Area” value (rabbit illiac arteries [1]; [3])?
Its value is 5.80 ± 0.16 mm^2.

And the “Intimal Area” value (rabbit illiac arteries [1]; [3])?
Its value is 1.027 ± 0.036 mm^2.

And the “Lumen Area” value (rabbit illiac arteries [1]; [3])?
Its value is 4.78 ± 0.20 mm^2.

What about the Stenosis (rabbit illiac arteries [1]; [3]) of the same molecule?
Its Stenosis is 17.7 ± 1.1%.

And the “arterial healing (in words)” value (rabbit illiac arteries [1]; rabbit, in vivo)?
The value was “(greater) arterial healing”.

What about the “% Struts with Giant cells” value (rabbit illiac arteries [1]; rabbit, in vivo, 28 days) of the same molecule?
The value was 21.9 ± 7.6%.

What about the “% struts with RBC” value (rabbit illiac arteries [1]; rabbit, in vivo, 28 days) of the same molecule?
Its value is 1.2 ± 2.4%.

And the “Endothelium (%)” value (rabbit illiac arteries [1]; rabbit, in vivo, 28 days)?
Its value is 97.2 ± 5.0%.

And the “Fibrin Score” value (rabbit illiac arteries [1]; rabbit, in vivo, 28 days)?
Its value is 0.41 ± 0.32.

And the “Inflam Score” value (rabbit illiac arteries [1]; rabbit, in vivo, 28 days)?
Its value is 1.00 ± 0.72.

Which “inflammation following vascular injury (in words)” value (rabbit iliacs) does the source give for `C=CC[C@@H]1/C=C(\C)C[C@H](C)C[C@H](OC)[C@H]2O[C@@](O)(C(=O)C(=O)N3CCCC[C@H]3C(=O)O[C@H](/C(C)=C/[C@@H]3CC[C@@H](O)[C@H](OC)C3)[C@H](C)[C@@H](O)CC1=O)[C@H](C)C[C@@H]2OC` [Tacrolimus] here?
Its value is “effectively reduce inflammation following vascular injury”.

How did the “inflammation following vascular injury (in words)” value (rabbit iliacs) turn out when Cyclosporin A was run?
The value was “effectively reduce inflammation following vascular injury”.
